Test results from patent US20260137815A1, “DIAGNOSTIC AND TREATMENT METHODS FOR ONYCHOMYCOSIS” (ToeFX Inc., priority 2022, published 2026).

Test system: T. rubrum strain F4520
Assay: UV-Visual absorption spectra of MB incubated with T. rubrum
Procedure: Referring to FIG. 5C, shown therein are UV-Visual absorption spectra of MB when incubated with T. rubrum. T. rubrum strain F4520 cubes were retrieved from −80° freezer, thawed at room temperature, and transferred to an Sabourand dextrose agar (SDA) plate, and distributed evenly on the SDA plate. The SDA plate was sealed by parafilm and moved into a 30° C. incubator until vigorous fungal growth was observed. Next, fungal mycelia were prepared, by transferring a 6.25 cm^2 culture from the SDA plate to a sterile blender cup and adding 200 mL sterile water. After 30 seconds of blending, varying amounts of blendate was pipetted into wells of a 96 well plate. […] The MB absorbance spectra was then measured by a photospectrometer.
The more dilute the fungus, the higher the MB absorbance value (i.e., normalized absorbance), indicating higher amounts of free MB in the solution.
A similar protocol was followed as described above for FIG. 5C, except that the concentration of T. rubrum in the solution was kept constant. MB absorbance was measured immediately (curve 502), 4 days (curve 504), and 7 days (curve 506) after mixing. Immediately after mixing, the MB absorbance peak is centered at ˜660 nm, corresponding to the absorption peak of MB alone in solution (see FIG. 5A). Over time, the intensity of the absorbance peak is lowered as MB is adsorbed to fungal cells, consistent with the curves in FIG. 5C.

CN(C)c1ccc2nc3ccc(=[N+](C)C)cc-3sc2c1 [MB, Methylene Blue]
MB absorbance (normalized) with increasing fungal concentration (0.01% v/v solution of MB, varying concentrations of T. rubrum): lower MB absorbance is observed | shift of MB absorbance peak over time (0.25% v/v solution of MB with T. rubrum culture, immediately, 4 days, 7 days after mixing): observable blue-shifting of the MB absorbance peak over time
